# System: HBV
# Assay: HepAD38 antiviral assay: reduction of viral product accumulation (virion DNA by qPCR, HBsAg or HBeAg by ELISA)
# Assay type: cell-based
# Details: Hepatitis B virus, 120 h; HepAD38 cells, five days after compound addition; 50% reduction of viral product accumulation relative to no drug controls; read-out: HepAD38 EC50
# Description: Methods: HepAD38 cells are maintained as previously reported (Ladner et al, Antimicrob. Agents Chemother. 1997, […], 1715). Briefly, cells are passaged upon attaining confluency in DMEM/F12 media in the presence of 10% FBS, Penn/Strep, 250 μg/mL G418, and 1 ug/ml tetracycline. Novel compounds are screened by first washing cells three times with PBS to remove tetracycline, and plating in 96 well plates at 35,000 cells/well. Compounds dissolved in DMSO are then diluted 1:200 into wells containing cells. Five days after compound addition, material is harvested for analysis. For an extended 8 day analysis, cells are plated and treated as described above, but media and compound are refreshed on d2 and d5 post initial treatment.
# On harvest day, virion DNA is obtained by lysing with Sidestep Lysis and Stabilization Buffer and then quantified via quantitative real time PCR. Commercially available ELISA kits are used to quantitate the viral proteins HBsAg (Alpco) or HbeAg (US Biological) by following the manufacturer's recommended protocol after diluting samples to match the linear range of their respective assays. Irrespective of readout, compound concentrations that reduce viral product accumulation in the cell lysates or supernatants by 50% relative to no drug controls (EC50) are reported; EC50 ranges are as follows: A<1 μM; B 1-10 μM; C>10 μM.
row,Structure (SMILES),EC50 [nM]
1,CN(C)CC(=O)NCCCNS(=O)(=O)c1cc(-c2nc(-c3ccc(Br)c(F)c3)c[nH]2)ccc1Cl [Example 200],1000 to 10000
2,O=S(=O)(c1cc(-c2ncc(-c3ccc(Br)c(F)c3)[nH]2)ccc1Cl)N1C[C@@H](O)[C@@H](O)C1 [Example 228],< 1000
3,COc1cc(-c2c[nH]c(-c3ccc(Cl)c(S(=O)(=O)N4CCC(O)CC4)c3)n2)ccc1Cl [Example 216],< 1000
4,O=S(=O)(c1cc(-c2nc(-c3ccc(Br)c(F)c3)c[nH]2)ccc1Cl)N1CCN(c2ccc(Cl)cn2)CC1 [Example 281],< 1000
5,O=S(=O)(c1cc(-c2nc(-c3ccc(Br)c(F)c3)c[nH]2)ccc1Cl)N1CC=C(c2ccccn2)CC1 [Example 221],1000 to 10000
6,COC(=O)NC1(C(=O)NCCCNS(=O)(=O)c2cc(-c3nc(-c4ccc(Br)c(F)c4)c[nH]3)ccc2Cl)CC1 [Example 192],< 1000
7,N#Cc1ccc(-c2c[nH]c(-c3ccc(Cl)c(S(=O)(=O)N4CCC(O)CC4)c3)n2)cc1 [Example 97],< 1000
8,O=S(=O)(c1cc(-c2nc(-c3ccc(Br)c(F)c3)c[nH]2)ccc1Cl)N1CC[C@@H](CO)C1 [Example 253],< 1000
9,CC(C)(C)OC(=O)NCC1CN(S(=O)(=O)c2cc(-c3ncc(-c4ccc(F)c(Br)c4)[nH]3)ccc2Cl)C1 [Example 182],< 1000
10,O=S(=O)(c1cc(-c2nc(-c3ccc(Br)c(F)c3)c[nH]2)ccc1Cl)N1CCC[C@@H](O)[C@@H](O)C1 [Example 264],< 1000
11,O=S(=O)(c1cc(-c2ncc(-c3ccc(Br)c(F)c3)[nH]2)ccc1Cl)N1CC[C@H](O)[C@H](O)C1 [Example 230],< 1000
12,O=S(=O)(c1cc(-c2nc(-c3ccc(Br)c(F)c3)c[nH]2)ccc1Cl)N1CCC[C@H](O)CC1 [Example 235],< 1000
13,COc1ccc(-c2c[nH]c(-c3ccc(Cl)c(S(=O)(=O)N4CCC(O)CC4)c3)n2)cc1Cl [Example 202],> 10000
14,C[C@@H]1CN(S(=O)(=O)c2cc(-c3ncc(-c4ccc(Br)c(F)c4)[nH]3)ccc2Cl)CC[C@H]1O [Example 208],< 1000
15,O=S(=O)(c1cc(-c2ncc(-c3ccc(Br)c(F)c3)[nH]2)ccc1Cl)N1CC[C@H](O)[C@@H](O)C1 [Example 231],< 1000
16,O=S(=O)(c1cc(-c2nc(-c3ccc(Br)c(F)c3)c[nH]2)ccc1Cl)N1C[C@H](O)C[C@@H]2C[C@@H]2C1 [Example 275],< 1000
17,O=S(=O)(c1cc(-c2ncc(-c3ccc(Br)c(F)c3)[nH]2)ccc1Cl)N1CCCCC(CO)C1 (stereo not drawn) [Example 269],< 1000
18,CC(C)(O)CNS(=O)(=O)c1cc(-c2ncc(-c3ccc(Br)c(F)c3)[nH]2)ccc1Cl [Example 224],< 1000
19,O=C(NCCCNS(=O)(=O)c1cc(-c2nc(-c3ccc(Br)c(F)c3)c[nH]2)ccc1Cl)OCc1ccccc1 [Example 180],< 1000
20,CC(C)(C)c1ccc(-c2c[nH]c(-c3ccc(Cl)c(S(=O)(=O)N4CCC(O)CC4)c3)n2)cc1 [Example 158],< 1000
21,O=C(Nc1ccccc1)C1CCN(S(=O)(=O)c2cc(-c3nc(-c4ccc(Br)c(F)c4)c[nH]3)ccc2Cl)CC1 [Example 166],1000 to 10000

row,Structure (SMILES),EC50 [nM]
1,O=S(=O)(c1cc(-c2nc(-c3ccc(Br)c(F)c3)c[nH]2)ccc1Cl)N1CCC[C@H](O)[C@@H](O)C1 [Example 278],< 1000
2,O=S(=O)(N[C@H]1CC[C@@H](O)CC1)c1cc(-c2ncc(-c3ccc(Br)c(F)c3)[nH]2)ccc1Cl [Example 227],< 1000
3,O=S(=O)(NC1CC(O)C1)c1cc(-c2ncc(-c3ccc(Br)c(F)c3)[nH]2)ccc1Cl (stereo not drawn) [Example 223],1000 to 10000
4,CC(C)(O)CCNS(=O)(=O)c1cc(-c2ncc(-c3ccc(Br)c(F)c3)[nH]2)ccc1Cl [Example 225],< 1000
5,O=S(=O)(c1cc(-c2nc(-c3ccc(Br)c(F)c3)c(Cl)[nH]2)ccc1Cl)N1CCC(O)CC1 [Example 184],> 10000
6,O=S(=O)(c1cc(-c2ncc(-c3ccc(Br)c(F)c3)[nH]2)ccc1Cl)N1CCC[C@H](O)C1 [Example 226],< 1000
7,N#CCCCCNS(=O)(=O)c1cc(-c2nc(-c3ccc(Br)c(F)c3)c[nH]2)ccc1Cl [Example 191],< 1000
8,C[C@H](N)C(=O)OC1CCN(S(=O)(=O)c2cc(-c3nc(-c4ccc(F)c(Br)c4)c[nH]3)ccc2Cl)CC1 [Example 160],1000 to 10000
9,O=S(=O)(c1cc(-c2ncc(-c3ccc(Br)c(F)c3)[nH]2)ccc1Cl)N1CCC[C@H](CO)C1 [Example 262],< 1000
10,O=S(=O)(NCCCNc1ncco1)c1cc(-c2nc(-c3ccc(Br)c(F)c3)c[nH]2)ccc1Cl [Example 237],< 1000
11,O=S(=O)(c1cc(-c2nc(-c3ccc(Br)c(F)c3)c[nH]2)ccc1Cl)N1CCN(c2ncccc2F)CC1 [Example 276],< 1000
12,O=S(=O)(c1cc(-c2ncc(-c3ccc(Br)c(F)c3)[nH]2)ccc1Cl)N1CCC2(O)CC2C1 (stereo not drawn) [Example 256],< 1000
13,O=S(=O)(c1cc(-c2nc(-c3ccc(Br)c(F)c3)c[nH]2)ccc1Cl)N1CCCOCC1 [Example 266],< 1000
14,O=S(=O)(c1cc(-c2nc(-c3ccc(Br)c(F)c3)c[nH]2)ccc1Cl)N1CCN(c2cc(F)ccn2)CC1 [Example 205],< 1000
15,O=S(=O)(c1cc(-c2nc(-c3ccccc3Br)c[nH]2)ccc1Cl)N1CCC(O)CC1 [Example 74],> 10000
16,O=S(=O)(c1cc(-c2nc(-c3ccc4ocnc4c3)c[nH]2)ccc1Cl)N1CCC(O)CC1 [Example 76],> 10000
17,O=S(=O)(c1cc(-c2ncc(-c3ccc(Br)c(F)c3)[nH]2)ccc1Cl)N1CC[C@@H](O)C1 [Example 247],> 10000
18,O=S(=O)(c1cc(-c2ncc(-c3ccc(Br)c(F)c3)[nH]2)ccc1Cl)N1C[C@@H](O)[C@H](O)C1 [Example 229],< 1000
19,O=S(=O)(c1cc(-c2nc(-c3ccc(Br)c(F)c3)c[nH]2)ccc1Cl)N1CCC[C@H](O)[C@H](O)C1 [Example 263],< 1000
20,COC(=O)NCCCN(C)S(=O)(=O)c1cc(-c2nc(-c3ccc(Br)c(F)c3)c[nH]2)ccc1Cl [Example 190],< 1000
21,O=S(=O)(c1cc(-c2ncc(-c3ccc(Br)c(F)c3)[nH]2)ccc1Cl)N1CCC[C@@H](O)C1 [Example 268],< 1000

row,Structure (SMILES),EC50 [nM]
1,O=S(=O)(c1cc(-c2nc(-c3ccc(Br)c(F)c3)c[nH]2)ccc1Cl)N1CCN(c2ncccc2Cl)CC1 [Example 279],< 1000
2,O=S(=O)(c1cc(-c2nc(-c3ccc(Br)c(F)c3)c[nH]2)ccc1Cl)N1CCC[C@@H](O)[C@H](O)C1 [Example 277],< 1000
3,O=S(=O)(c1cc(-c2nc(-c3ccc(Br)c(F)c3)c[nH]2)ccc1Cl)N1CCN(c2ccncc2)CC1 [Example 196],< 1000
4,N#Cc1ccc(-c2c[nH]c(-c3ccc(Cl)c(S(=O)(=O)N4CCC(O)CC4)c3)n2)cc1C(F)(F)F [Example 155],< 1000
5,COC(=O)OCCCNS(=O)(=O)c1cc(-c2nc(-c3ccc(Br)c(F)c3)c[nH]2)ccc1Cl [Example 177],< 1000
6,O=S(=O)(c1cc(-c2nc(-c3ccc(F)c(Br)c3)c(F)[nH]2)ccc1Cl)N1CCC(O)CC1 [Example 197],< 1000
7,O=S(=O)(NCCCCc1nnn[nH]1)c1cc(-c2nc(-c3ccc(Br)c(F)c3)c[nH]2)ccc1Cl [Example 215],> 10000
8,COCC(C)NS(=O)(=O)c1cc(-c2nc(-c3ccc(Br)c(F)c3)c[nH]2)ccc1Cl (stereo not drawn) [Example 164],1000 to 10000
9,CNC(=O)OCCCNS(=O)(=O)c1cc(-c2nc(-c3ccc(Br)c(F)c3)c[nH]2)ccc1Cl [Example 186],< 1000
10,N#Cc1cc(-c2c[nH]c(-c3ccc(Cl)c(S(=O)(=O)N4CCC(O)CC4)c3)n2)ccc1C1CC1 [Example 156],1000 to 10000
11,O=S(=O)(NC[C@@H](O)CO)c1cc(-c2ncc(-c3ccc(Br)c(F)c3)[nH]2)ccc1Cl [Example 214],< 1000
12,O=S(=O)(c1cc(-c2nc(-c3cscn3)c[nH]2)ccc1Cl)N1CCC(O)CC1 [Example 80],> 10000
13,CC(C)(C)c1cccc(-c2c[nH]c(-c3ccc(Cl)c(S(=O)(=O)N4CCC(O)CC4)c3)n2)c1 [Example 162],1000 to 10000
14,O=S(=O)(c1cc(-c2nc(-c3ccc(Br)c(F)c3)c[nH]2)ccc1Cl)N1CC2COCC2C1 (stereo not drawn) [Example 163],< 1000
15,O=S(=O)(c1cc(-c2nc(-c3ccc(C(F)(F)F)c(C4CC4)c3)c[nH]2)ccc1Cl)N1CCC(O)CC1 [Example 161],< 1000
16,CC(C)(C)OC(=O)NCCCCCCCNS(=O)(=O)c1cc(-c2nc(-c3ccc(Br)c(F)c3)c[nH]2)ccc1Cl [Example 252],< 1000
17,O=S(=O)(c1cc(-c2ncc(-c3ccc(Br)c(F)c3)[nH]2)ccc1Cl)N1CC[C@H](O)[C@@H](C(F)(F)F)C1 [Example 270],< 1000
18,COC1CCCCC1N1CCN(S(=O)(=O)c2cc(-c3nc(-c4ccc(Br)c(F)c4)c[nH]3)ccc2Cl)CC1 (stereo not drawn) [Example 240],< 1000
19,O=S(=O)(c1cc(-c2nc(-c3ccc(Cl)c(C(F)(F)F)c3)c[nH]2)ccc1Cl)N1CCC(O)CC1 [Example 152],< 1000
20,O=S(=O)(c1cc(-c2nc(-c3ccc(Br)c(F)c3)c[nH]2)ccc1Cl)N1CCN(S(=O)(=O)C2CC2)CC1 [Example 222],> 10000
21,O=C(CCCNS(=O)(=O)c1cc(-c2nc(-c3ccc(Br)c(F)c3)c[nH]2)ccc1Cl)Nc1ccccc1 [Example 194],< 1000

# From patent publication US10442788B2, “Hepatitis B antiviral agents” (ENANTA PHARMACEUTICALS, INC., priority 2015, dated 2019)
